According to patent US20220315558A1, “POLYMORPHS OF 1-(2-((((TRANS)-3-FLUORO-1-(3-FLUOROPYRIDIN-2-YL)CYCLOBUTYL)METHYL)AMINO)PYRIMIDIN-5-YL)-1H-PYRROLE-3-CARBOXAMIDE” (Cytokinetics, Inc., priority 2019, published 2022):

What was measured:
Format in all cases: physicochemical
[1] = Competitive slurry experiments between Form I and Form IV; conditions: as Example 3 (methanol, 4 to 60° C.), 12 days, XRPD
Method: (§1) A mechanical mixture of Form I and Form II was prepared. This mixture was analyzed by XRPD for reference. The mixture (ca. 25 mg) was suspended in methanol, and parallel maturation experiments were set up at a constant temperature, in the range of 4 to 60° C., for a total of 12 days. The resulting solids were filtered and analyzed by XRPD.
Competitive slurry experiments between Form I and Form IV were conducted in a manner similar to that described in Example 3.

[2] = Storage stability for 7 days at controlled temperature/RH, checked by XRPD
Method: Ray Powder Diffraction patterns were collected on a Bruker D8 diffractometer using Cu Kα radiation (40 kV, 40 mA), θ-2θ goniometer, and divergence of V4 and receiving slits, a Ge monochromator and a Lynxeye detector. The instrument is performance checked using a certified Corundum standard (NIST 1976). The software used for data collection was Diffrac Plus XRD Commander v2.6.1 and the data were analysed and presented using Diffrac Plus EVA v13.0.0.2 or v15.0.0.0.
Samples were run under ambient conditions as flat plate specimens using powder as received. The sample was gently packed into a cavity cut into polished, zero-background (510) silicon wafer. The sample was rotated in its own plane during analysis. The details of the data collection are: • Angular range: 2 to 42° 2θ • Step size: 0.05° 2θ • Collection time: 0.5 s/step
Polymorphic Form I of 1-(2-((((trans)-3-fluoro-1-(3-fluoropyridin-2-yl)cyclobutyl)methyl)amino)pyrimidin-5-yl)-1H-pyrrole-3-carboxamide was analyzed by XRPD, DSC, TGA, and GVS. […] Chemical stability study of Form I was also performed. XRPD patterns were measured after storage of samples of Form I for 7 days at 40° C./75% RH and 25° C./97% RH.

[3] = Solubility of Form I in solvents at 50° C. (polymorph screening); parameters: key: ✓ YES; x NO
Method: Polymorphic Form I of 1-(2-((((trans)-3-fluoro-1-(3-fluoropyridin-2-yl)cyclobutyl)methyl)amino)pyrimidin-5-yl)-1H-pyrrole-3-carboxamide was weighed into vials, and the stated solvents were added, in increasing portions, at 50° C. With each addition, the vials were allowed to shake for ˜20 minutes. After the last addition, any suspensions observed were subjected to heat/cool cycles, between room temperature and 50° C., 4 hours at each condition, for 1 week. Solutions were allowed to slowly evaporate.
Aliquots were filtered by suction after 7 days maturation and analysed by XRPD (low resolution, air-dried only). Most solutions yielded solids after 9 days and these were analyzed by XRPD as well.

[4] = Competitive slurry experiments between Form I and Form II; conditions: methanol, constant temperature 4 to 60° C., 12 days, XRPD
Method: as §1

[5] = Gravimetric Vapour Sorption (GVS) moisture sorption isotherm; conditions: over 0-90% RH range, 25° C.
Method: GVS data were collected using a SMS DVS Intrinsic moisture sorption analyser, controlled by DVS Intrinsic Control software v1.0.0.30. The sample temperature was maintained at 25° C. by the instrument controls. The humidity was controlled by mixing streams of dry and wet nitrogen, with a total flow rate of 200 ml/min The relative humidity was measured by a calibrated Rotronic probe (dynamic range of 1.0-100% RH), located near the sample. The weight change, (mass relaxation) of the sample as a function of % RH was constantly monitored by the microbalance (accuracy ±0.005 mg).
Typically 5-20 mg of sample was placed in a tared mesh stainless steel basket under ambient conditions. The sample was loaded and unloaded at 40% RH and 25° C. (typical room conditions). A moisture sorption isotherm was performed as outlined below (2 scans giving 1 complete cycle). The standard isotherm was performed at 25° C. at 10% RH intervals over a 0-90% RH range. Data analysis was undertaken in Microsoft Excel using DVS Analysis Suite v6.0.

relative stability versus Form IV (competitive slurry) [1]: more stable | changes in XRPD pattern after storage ([2]; 7 days at 25° C./97% RH): No visible changes | changes in XRPD pattern after storage ([2]; 7 days at 40° C./75% RH): No visible changes | Solubility (volumes) (✓ YES; x NO) at 50° C. ([3]; 1,4-Dioxane, 10 volumes): x | Solubility (volumes) (✓ YES; x NO) at 50° C. ([3]; 1,4-Dioxane, 25 volumes): x | Solubility (volumes) (✓ YES; x NO) at 50° C. ([3]; 1,4-Dioxane, 50 volumes): x | Solubility (volumes) (✓ YES; x NO) at 50° C. ([3]; 1-Butanol, 10 volumes): x | Solubility (volumes) (✓ YES; x NO) at 50° C. ([3]; 1-Butanol, 25 volumes): x | Solubility (volumes) (✓ YES; x NO) at 50° C. ([3]; 1-Butanol, 50 volumes): x | Solubility (volumes) (✓ YES; x NO) at 50° C. ([3]; 1-Propanol, 10 volumes): x | Solubility (volumes) (✓ YES; x NO) at 50° C. ([3]; 1-Propanol, 25 volumes): x | Solubility (volumes) (✓ YES; x NO) at 50° C. ([3]; 1-Propanol, 50 volumes): x | Solubility (volumes) (✓ YES; x NO) at 50° C. ([3]; 2-Propanol, 10 volumes): x | Solubility (volumes) (✓ YES; x NO) at 50° C. ([3]; 2-Propanol, 25 volumes): x | Solubility (volumes) (✓ YES; x NO) at 50° C. ([3]; 2-Propanol, 50 volumes): x | Solubility (volumes) (✓ YES; x NO) at 50° C. ([3]; Acetone, 10 volumes): x | Solubility (volumes) (✓ YES; x NO) at 50° C. ([3]; Acetone, 25 volumes): x | Solubility (volumes) (✓ YES; x NO) at 50° C. ([3]; Acetone, 50 volumes): x | Solubility (volumes) (✓ YES; x NO) at 50° C. ([3]; Acetonitrile, 10 volumes): ✓ | Solubility (volumes) (✓ YES; x NO) at 50° C. ([3]; Anisole, 10 volumes): x | Solubility (volumes) (✓ YES; x NO) at 50° C. ([3]; Anisole, 25 volumes): x | Solubility (volumes) (✓ YES; x NO) at 50° C. ([3]; Anisole, 50 volumes): x | Solubility (volumes) (✓ YES; x NO) at 50° C. ([3]; Butyl acetate (BuOAc), 10 volumes): x | Solubility (volumes) (✓ YES; x NO) at 50° C. ([3]; Butyl acetate (BuOAc), 25 volumes): x | Solubility (volumes) (✓ YES; x NO) at 50° C. ([3]; Butyl acetate (BuOAc), 50 volumes): x | Solubility (volumes) (✓ YES; x NO) at 50° C. ([3]; Dichloromethane (DCM), 10 volumes): x | Solubility (volumes) (✓ YES; x NO) at 50° C. ([3]; Dichloromethane (DCM), 25 volumes): x | Solubility (volumes) (✓ YES; x NO) at 50° C. ([3]; Dichloromethane (DCM), 50 volumes): x | Solubility (volumes) (✓ YES; x NO) at 50° C. ([3]; Dioxane/5% water, 10 volumes): x | Solubility (volumes) (✓ YES; x NO) at 50° C. ([3]; Dioxane/5% water, 25 volumes): x | Solubility (volumes) (✓ YES; x NO) at 50° C. ([3]; Dioxane/5% water, 50 volumes): ✓ | Solubility (volumes) (✓ YES; x NO) at 50° C. ([3]; Ethanol, 10 volumes): x | Solubility (volumes) (✓ YES; x NO) at 50° C. ([3]; Ethanol, 25 volumes): x | Solubility (volumes) (✓ YES; x NO) at 50° C. ([3]; Ethanol, 50 volumes): x | Solubility (volumes) (✓ YES; x NO) at 50° C. ([3]; Ethanol/5% water, 10 volumes): x | Solubility (volumes) (✓ YES; x NO) at 50° C. ([3]; Ethanol/5% water, 25 volumes): x | Solubility (volumes) (✓ YES; x NO) at 50° C. ([3]; Ethanol/5% water, 50 volumes): x | Solubility (volumes) (✓ YES; x NO) at 50° C. ([3]; Ethyl acetate, 10 volumes): x | Solubility (volumes) (✓ YES; x NO) at 50° C. ([3]; Ethyl acetate, 25 volumes): x | Solubility (volumes) (✓ YES; x NO) at 50° C. ([3]; Ethyl acetate, 50 volumes): x | Solubility (volumes) (✓ YES; x NO) at 50° C. ([3]; Heptane, 10 volumes): x | Solubility (volumes) (✓ YES; x NO) at 50° C. ([3]; Heptane, 25 volumes): x | Solubility (volumes) (✓ YES; x NO) at 50° C. ([3]; Heptane, 50 volumes): x | Solubility (volumes) (✓ YES; x NO) at 50° C. ([3]; Isopropanol (IPA)/5% water, 10 volumes): x | Solubility (volumes) (✓ YES; x NO) at 50° C. ([3]; Isopropanol (IPA)/5% water, 25 volumes): x | Solubility (volumes) (✓ YES; x NO) at 50° C. ([3]; Isopropanol (IPA)/5% water, 50 volumes): x | Solubility (volumes) (✓ YES; x NO) at 50° C. ([3]; Isopropyl acetate (IPAc), 10 volumes): x | Solubility (volumes) (✓ YES; x NO) at 50° C. ([3]; Isopropyl acetate (IPAc), 25 volumes): x | Solubility (volumes) (✓ YES; x NO) at 50° C. ([3]; Isopropyl acetate (IPAc), 50 volumes): x | Solubility (volumes) (✓ YES; x NO) at 50° C. ([3]; Methanol, 10 volumes): x | Solubility (volumes) (✓ YES; x NO) at 50° C. ([3]; Methanol, 25 volumes): x | Solubility (volumes) (✓ YES; x NO) at 50° C. ([3]; Methanol, 50 volumes): x | Solubility (volumes) (✓ YES; x NO) at 50° C. ([3]; Methyl ethyl ketone (MEK), 10 volumes): x | Solubility (volumes) (✓ YES; x NO) at 50° C. ([3]; Methyl ethyl ketone (MEK), 25 volumes): x | Solubility (volumes) (✓ YES; x NO) at 50° C. ([3]; Methyl ethyl ketone (MEK), 50 volumes): x | Solubility (volumes) (✓ YES; x NO) at 50° C. ([3]; Methyl isobutyl ketone (MIBK), 10 volumes): x | Solubility (volumes) (✓ YES; x NO) at 50° C. ([3]; Methyl isobutyl ketone (MIBK), 25 volumes): x | Solubility (volumes) (✓ YES; x NO) at 50° C. ([3]; Methyl isobutyl ketone (MIBK), 50 volumes): x | Solubility (volumes) (✓ YES; x NO) at 50° C. ([3]; Nitromethane, 10 volumes): x | Solubility (volumes) (✓ YES; x NO) at 50° C. ([3]; Nitromethane, 25 volumes): x | Solubility (volumes) (✓ YES; x NO) at 50° C. ([3]; Nitromethane, 50 volumes): x | Solubility (volumes) (✓ YES; x NO) at 50° C. ([3]; THF/5% water, 10 volumes): x | Solubility (volumes) (✓ YES; x NO) at 50° C. ([3]; THF/5% water, 25 volumes): Cloudy | Solubility (volumes) (✓ YES; x NO) at 50° C. ([3]; THF/5% water, 50 volumes): ✓ | Solubility (volumes) (✓ YES; x NO) at 50° C. ([3]; Tert-butyl methyl ether (TBME), 10 volumes): x | Solubility (volumes) (✓ YES; x NO) at 50° C. ([3]; Tert-butyl methyl ether (TBME), 25 volumes): x | Solubility (volumes) (✓ YES; x NO) at 50° C. ([3]; Tert-butyl methyl ether (TBME), 50 volumes): x | Solubility (volumes) (✓ YES; x NO) at 50° C. ([3]; Tetrahydrofuran (THF), 10 volumes): x | Solubility (volumes) (✓ YES; x NO) at 50° C. ([3]; Tetrahydrofuran (THF), 25 volumes): x | Solubility (volumes) (✓ YES; x NO) at 50° C. ([3]; Tetrahydrofuran (THF), 50 volumes): x | Solubility (volumes) (✓ YES; x NO) at 50° C. ([3]; Toluene, 10 volumes): x | Solubility (volumes) (✓ YES; x NO) at 50° C. ([3]; Toluene, 25 volumes): x | Solubility (volumes) (✓ YES; x NO) at 50° C. ([3]; Toluene, 50 volumes): x | Solubility (volumes) (✓ YES; x NO) at 50° C. ([3]; Water, 10 volumes): x | Solubility (volumes) (✓ YES; x NO) at 50° C. ([3]; Water, 25 volumes): x | Solubility (volumes) (✓ YES; x NO) at 50° C. ([3]; Water, 50 volumes): x | relative stability versus Form II (competitive slurry) [4]: more stable | moisture uptake as determined by GVS [5]: less than 0.07%
Structure (SMILES): NC(=O)c1ccn(-c2cnc(NC[C@]3(c4ncccc4F)C[C@H](F)C3)nc2)c1 [Form I, 1-(2-((((trans)-3-fluoro-1-(3-fluoropyridin-2-yl)cyclobutyl)methyl)amino)pyrimidin-5-yl)-1H-pyrrole-3-carboxamide]
